Key:
Assay type in all cases: cell-based
[1] = test system: SW480 colon adenocarcinoma cell line; assay: MTS cell viability assay (NCI-60 methodology), GI50/LC50, SW480; settings: Homo sapiens, 48 h, SW480 cells, 2 days incubation with compound
How it was run: (§1)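 Cells were plated 24 h before treatment, and a time-zero plate was read by MTS. Five 2-fold dilutions plus DMSO were then added for 48 h, and viability was measured by MTS. GI50 is from [(Ti−Tz)/(C−Tz)]×100=50 and LC50 from [(Ti−Tz)/Tz]×100=−50.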

[2] = test system: Hep3B hepatocellular carcinoma cell line; assay: MTS cell viability assay (NCI-60 methodology), GI50/LC50, Hep3B; settings: Homo sapiens, 48 h, Hep3B cells, 2 days incubation with compound
How it was run: as §1

[3] = test system: hepatocellular carcinoma cell line Hep3B; assay: Growth inhibition of Hep3B cells, 48 hr treatment, Hoechst 33342 nucleus count (GE InCell 2200); settings: Homo sapiens
How it was run: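 Compound exposure lasted 48 hr at 37° C, 5% CO2. Surviving nuclei were counted after Hoechst 33342 staining, and survival was expressed as the treated/non-treated cell number ratio, including the ratio at 10 μM compound.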

[4] = test system: NCI-H460 human lung cancer cell line; assay: MTS cell viability assay (NCI-60 methodology), GI50/LC50, NCI-H460; settings: 48 h, NCI-H460 cells, 2 days incubation with compound
How it was run: as §1

[5] = Table 5, ratio of number of tumor cells treated with 10 μM compound to non-treated cells

SMILES | GI50 [1] [nM] | LC50 (NCI-60 lethal concentration, 50% net cell loss vs time zero) [1] [nM] | GI50 [2] [nM] | LC50 [2] [nM] | viability at 10 µM [3, 5] [%] | GI50 [4] [nM] | LC50 (concentration giving 50% net cell loss versus time zero, NCI-60 definition) [4] [nM] | viability at 10 µM ([3]; Table 6, ratio of number of tumor cells treated with 10 μM compound to non-treated cells) [%]
O=C(Nc1nc(-c2ccc(OC(F)(F)F)cc2)c(Oc2ccccc2F)s1)c1ccc([N+](=O)[O-])s1 [Compound 5-85, N-(5-(2-fluorophenoxy)-4-(4-(trifluoromethoxy)phenyl)thiazol-2-yl)-5-nitrothiophene-2-carboxamide] | 1660 | 5730 | 870 | 2540 | 34 | 750 | 1580 | 
CCCOc1ccc(-c2nc(NC(=O)c3ccc([N+](=O)[O-])s3)sc2Oc2ccc(C(F)(F)F)cc2)cc1 [Compound 5-26, 5-nitro-N-(4-(4-propoxyphenyl)-5-(4-(trifluoromethyl)phenoxy)thiazol-2-yl)thiophene-2-carboxamide] | 1050 | 3440 | 830 | 1180 | 24 | 1150 | 3200 | 
CCCOc1ccc(-c2nc(NC(=O)c3ccc([N+](=O)[O-])s3)sc2Oc2cccc(C(F)(F)F)c2)cc1 [Compound 5-17, 5-nitro-N-(4-(4-propoxyphenyl)-5-(3-(trifluoromethyl)phenoxy)thiazol-2-yl)thiophene-2-carboxamide] | 1260 | 2410 | 300 | 1600 | 37 | 1160 | 2290 | 
O=C(Nc1nc(-c2ccc(Br)cc2)c(Oc2ccccc2C(F)(F)F)s1)c1ccc([N+](=O)[O-])s1 [Compound 5-19, N-(4-(4-bromophenyl)-5-(2-(trifluoromethyl)phenoxy)thiazol-2-yl)-5-nitrothiophene-2-carboxamide] | 1510 | 3940 | 1790 | 3910 | 62 | 2880 |  | 
CCCCc1ccc(-c2nc(NC(=O)c3ccc([N+](=O)[O-])s3)sc2Oc2ccccc2F)cc1 [Compound 5-80, N-(4-(4-butylphenyl)-5-(2-fluorophenoxy)thiazol-2-yl)-5-nitrothiophene-2-carboxamide] | 1460 | 4170 | 680 | 1280 | 26 | 840 | 1750 | 
CC(C)(C)c1ccc(-c2nc(NC(=O)c3ccc([N+](=O)[O-])s3)sc2-c2ccccc2)cc1 [Compound 6-21, N-(4-(4-(tert-butyl)phenyl)-5-phenylthiazol-2-yl)-5-nitrothiophene-2-carboxamide] | 490 | 1470 | 670 | 1350 |  | 810 | 1470 | 29
CC(C)(C)c1ccc(-c2nc(NC(=O)c3ccc([N+](=O)[O-])s3)sc2Oc2ccccc2)cc1 [Compound 5-14, N-(4-(4-(tert-butyl)phenyl)-5-phenoxythiazol-2-yl)-5-nitrothiophene-2-carboxamide] | 1510 |  | 340 | 7350 | 50 | 1720 |  | 
